Assay results: patent US9085555B2, “Complement pathway modulators and uses thereof” (priority 2011, dated 2015)

Target: Factor D (Homo sapiens (Human), UniProt P00746)
Assay: biochemical
Format: biochemical
Settings: read-out: IC50

Chain of Factor D (P00746 26-253): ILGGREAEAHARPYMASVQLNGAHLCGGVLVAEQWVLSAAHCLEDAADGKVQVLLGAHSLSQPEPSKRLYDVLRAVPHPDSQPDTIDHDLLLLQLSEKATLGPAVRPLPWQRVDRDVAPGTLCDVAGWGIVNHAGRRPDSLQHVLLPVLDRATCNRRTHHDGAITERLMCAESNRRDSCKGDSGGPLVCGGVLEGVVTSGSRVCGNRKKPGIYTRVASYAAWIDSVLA

Row | Compound | IC50 [nM]
1 | COCC(=O)c1cn(CC(=O)N2C[C@H](F)C[C@H]2C(=O)NCc2cccc(Cl)c2F)c2ccccc12 [Example 565, (2S,4R)-4-Fluoro-1-{2-[3-(2-methoxy-acetyl)-indol-1-yl]-acetyl}-pyrrolidine-2-carboxylic acid 3-chloro-2-fluoro-benzylamide] | 369
2 | CC(=O)c1cn(CC(=O)N2C[C@H](F)C[C@H]2C(=O)N[C@H](CO)c2cccc(Cl)c2F)c2ccccc12 [Example 518, (2S,4R)-1-[2-(3-Acetyl-indol-1-yl)-acetyl]-4-fluoro-pyrrolidine-2-carboxylic acid [(S)-1-(3-chloro-2-fluoro-phenyl)-2-hydroxy-ethyl]-amide] | 41
3 | NC(=O)n1cc(NC(=O)N2C[C@@H](N)C[C@H]2C(=O)NC[C@@H]2CCCC[C@@H]2O)c2ccccc21 [Example 76, (2S,4S)-4-Amino-pyrrolidine-1,2-dicarboxylic acid 1-[(1-carbamoyl-1H-indol-3-yl)-amide] 2-[((1S,2S)-2-hydroxy-cyclohexylmethyl)-amide]] | 15600
4 | NC(=O)n1cc(NC(=O)N2C[C@H](F)C[C@H]2C(=O)NC(C(=O)O)c2cccc(Cl)c2)c2ccccc21 (stereo partly drawn) [Example 246, {[(2S,4R)-1-(1-Carbamoyl-1H-indol-3-ylcarbamoyl)-4-fluoro-pyrrolidine-2-carbonyl]-amino}-(3-chloro-phenyl)-acetic acid] | 2000
5 | COC(=O)c1cccc(NC(=O)[C@@H]2CCCN2C(=O)Nc2cn(C(N)=O)c3ccccc23)c1 [Example 219, 3-{[(S)-1-(1-Carbamoyl-1H-indol-3-ylcarbamoyl)-pyrrolidine-2-carbonyl]-amino}-benzoic acid methyl ester] | 1850
6 | COC[C@@H](NC(=O)[C@@H]1C[C@H]2C[C@H]2N1C(=O)Nc1cn(C(N)=O)c2ccccc12)c1cccc(Cl)c1F [Example 236, (1R,3S,5R)-2-Aza-bicyclo[3.1.0]hexane-2,3-dicarboxylic acid 2-[(1-carbamoyl-1H-indol-3-yl)-amide] 3-{[(S)-1-(3-chloro-2-fluoro-phenyl)-2-methoxy-ethyl]-amide}] | 8
7 | NC(=O)n1cc(NC(=O)N2CC[C@H](F)[C@H]2C(=O)NCc2cccc(Cl)c2)c2ccccc21 [Example 348, 2R,3S)-3-Fluoro-pyrrolidine-1,2-dicarboxylic acid 1-[(1-carbamoyl-1H-indol-3-yl)-amide]2-(3-chloro-benzylamide] | 200
8 | CC(=O)c1cn(CC(=O)N2C[C@](C)(F)C[C@H]2C(=O)NCc2cccc(Cl)c2F)c2ccc(O)cc12 [Example 580, (2S,4R)-1-[2-(3-Acetyl-5-hydroxy-indol-1-yl)-acetyl]-4-fluoro-4-methyl-pyrrolidine-2-carboxylic acid 3-chloro-2-fluoro-benzylamide] | 252
9 | C[C@@H]1CC[C@@H](C(=O)NCc2cccc(Cl)c2F)N1C(=O)Nc1cn(C(N)=O)c2ccccc12 [Example 350, 2S,5R)-5-Methyl-pyrrolidine-1,2-dicarboxylic acid 1-[(1-carbamoyl-1H-indol-3-yl)-amide]2-(3-chloro-2-fluoro-benzylamide] | 85
10 | CC(=O)c1cn(CC(=O)N2C[C@](C)(F)C[C@H]2C(=O)NCc2cccc(Cl)c2F)c2cc(O)ccc12 [Example 582, (2S,4R)-1-[2-(3-Acetyl-6-hydroxy-indol-1-yl)-acetyl]-4-fluoro-4-methyl-pyrrolidine-2-carboxylic acid 3-chloro-2-fluoro-benzylamide] | 134
11 | NC(=O)n1cc(NC(=O)N2N=CCC2C(=O)NCc2cccc(Cl)c2F)c2ccccc21 (racemic) [Example 201, 4,5-Dihydro-pyrazole-1,5-dicarboxylic acid 1-[(1-carbamoyl-1H-indol-3-yl)-amide] 5-(3-chloro-2-fluoro-benzylamide)] | 20
12 | NC(=O)n1cc(NC(=O)N2C[C@@H](N)C[C@H]2C(=O)NCc2cccc3ccccc23)c2ccccc21 [Example 64, (2S,4S)-4-Amino-pyrrolidine-1,2-dicarboxylic acid 1-[(1-carbamoyl-1H-indol-3-yl)-amide] 2-[(naphthalen-1-ylmethyl)-amide]] | 22400
13 | NC(=O)n1cc(NC(=O)N2C[C@H](F)C[C@H]2C(=O)NCc2ccncc2F)c2ccccc21 [Example 230, (2S,4R)-4-Fluoro-pyrrolidine-1,2-dicarboxylic acid 1-[(1-carbamoyl-1H-indol-3-yl)-amide] 2-[(3-fluoro-pyridin-4-ylmethyl)-amide]] | 2550
14 | NC(=O)n1cc(NC(=O)N2[C@H]3C[C@@]3(CO)C[C@H]2C(=O)NCc2cccc(Cl)c2F)c2ccccc21 [Example 357, 1S,3S,5R)-5-Hydroxymethyl-2-aza-bicyclo[3.1.0]hexane-2,3-dicarboxylic acid 2-[(1-carbamoyl-1H-indol-3-yl)-amide]3-(3-chloro-2-fluoro-benzylamide] | 389
15 | CC(=O)c1nn(CC(=O)N2[C@@H]3C[C@@H]3C[C@H]2C(=O)N[C@H](CCN(C)C)c2cccc(Cl)c2F)c2ccccc12 [Example 642, (1R,3S,5R)-2-[2-(3-Acetyl-indazol-1-yl)-acetyl]-2-aza-bicyclo[3.1.0]hexane-3-carboxylic acid [(R)-1-(3-chloro-2-fluoro-phenyl)-3-dimethylamino-propyl]-amide] | 15
16 | CCOC(=O)Cc1ccc2c(c1)c(NC(=O)N1[C@@H]3C[C@@H]3C[C@H]1C(=O)NCc1cccc(Cl)c1F)cn2C(N)=O [Example 306, (1-carbamoyl-3-{[(1R,3S,5R)-3-(3-chloro-2-fluoro-benzylcarbamoyl)-2-aza-bicyclo[3.1.0]hexane-2-carbonyl]-amino}-1H-indol-5-yl)-acetic acid ethyl ester] | 4
17 | NC(=O)n1cc(NC(=O)N2[C@@H]3C[C@@H]3C[C@H]2C(=O)NCc2cccc(F)c2F)c2ccccc21 [Example 195, (1R,3S,5R)-2-Aza-bicyclo[3.1.0]hexane-2,3-dicarboxylic acid 2-[(1-carbamoyl-1H-indol-3-yl)-amide] 3-(2,3-difluoro-benzylamide)] | 14
18 | CC(=O)c1cn(CC(=O)N2[C@@H]3C[C@@H]3C[C@H]2C(=O)NCc2cccc(Cl)c2F)c2ccccc12 [Example 510, (1R,3S,5R)-2-[2-(3-Acetyl-indol-1-yl)-acetyl]-2-aza-bicyclo[3.1.0]hexane-3-carboxylic acid 3-chloro-2-fluoro-benzylamide] | 16
19 | CC(=O)c1cn(CC(=O)N2C[C@@H](N(C)C)[C@H](F)[C@H]2C(=O)NCc2cccc(Cl)c2F)c2ccccc12 [Example 555, (2R,3S,4R)-1-[2-(3-Acetyl-indol-1-yl)-acetyl]-4-dimethylamino-3-fluoro-pyrrolidine-2-carboxylic acid 3-chloro-2-fluoro-benzylamide] | 2270
20 | COC(=O)c1ccc2c(C(C)=O)nn(CC(=O)N3[C@@H]4C[C@@H]4C[C@H]3C(=O)NCc3cccc(Cl)c3F)c2c1 [Example 632, 3-Acetyl-1-{2-[(1R,3S,5R)-3-(3-chloro-2-fluoro-benzylcarbamoyl)-2-aza-bicyclo [3.1.0]hex-2-yl]-2-oxo-ethyl}-1H-indazole-6-carboxylic acid methyl ester] | 18
21 | N#C[C@@H]1C[C@@H](C(=O)Nc2cccc(OC(F)(F)F)c2)N(C(=O)Nc2cn(C(N)=O)c3ccccc23)C1 [Example 256, (2S,4R)-4-cyano-pyrrolidine-1,2-dicarboxylic acid 1-[(1-carbamoyl-1H-indol-3-yl)-amide]2-[(3-trifluoromethoxy-phenyl)-amide]] | 4000
